The record followed here is article PMC6091977, “The permeation mechanism of organic cations through a CNG mimic channel” (PLoS Computational Biology, 2018).

In one assay the target is NaK2CNG-E chimera. Put plainly: crystal structure; sitting drop vapor diffusion at 20°C, 40-44% MPD, 100 mM MES pH 6.5, 25 mM glycine; protein purified in DM with DMA·HCl; space group P222_(1); tetramers AABB and CCDD built by two-fold crystallographic symmetry.
Assay [1] has as its target T1, CNGA1 channel (bovine CNGA1, bCNGA1) (Bos taurus, UniProt Q00194).
T1 sequence (Q00194 1-690): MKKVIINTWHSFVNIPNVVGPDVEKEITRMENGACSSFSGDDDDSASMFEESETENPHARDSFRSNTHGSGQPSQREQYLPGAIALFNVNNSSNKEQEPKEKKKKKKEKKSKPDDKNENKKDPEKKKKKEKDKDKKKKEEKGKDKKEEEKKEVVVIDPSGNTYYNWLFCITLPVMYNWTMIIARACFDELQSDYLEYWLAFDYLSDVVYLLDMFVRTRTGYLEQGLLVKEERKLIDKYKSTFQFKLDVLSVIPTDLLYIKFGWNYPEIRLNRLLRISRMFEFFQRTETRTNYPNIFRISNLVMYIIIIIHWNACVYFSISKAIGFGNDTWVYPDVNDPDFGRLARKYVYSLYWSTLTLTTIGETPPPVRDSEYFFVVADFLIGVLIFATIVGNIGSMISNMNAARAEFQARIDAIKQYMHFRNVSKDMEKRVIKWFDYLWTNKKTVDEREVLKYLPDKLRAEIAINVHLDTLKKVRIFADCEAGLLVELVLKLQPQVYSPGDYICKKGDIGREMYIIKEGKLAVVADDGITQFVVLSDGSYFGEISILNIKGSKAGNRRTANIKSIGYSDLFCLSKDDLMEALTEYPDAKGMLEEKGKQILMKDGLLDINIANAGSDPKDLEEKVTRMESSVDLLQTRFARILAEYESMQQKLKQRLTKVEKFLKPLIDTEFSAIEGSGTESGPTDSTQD
Description: excised-patch voltage clamp; current activation. More on the design: full-length CNGA1 expressed alone from cRNA in Xenopus laevis oocytes; excised patches. The settings on record: agonist at 1 mM; DMA as charge carrier; pH 7.4. The assay is classed as biochemical.

The target of assay [2] is T1, CNGA1 channel (bovine CNGA1, bCNGA1). Put plainly: cell-based.

One may read the stoichiometry N as a count of units in the complex or per binding partner. As a reminder, the Kd is the concentration at which binding is half-saturated. Low values mean tighter binding, high ones weaker binding.

NaK2CNG-E chimera had a stoichiometry N with NaK2CNG-E chimera of 4. As to `Nc1nc2c(ncn2[C@@H]2O[C@@H]3COP(=O)(O)O[C@H]3[C@H]2O)c(=O)[nH]1` [cGMP], in assay [1], the “excised-patch voltage clamp; current activation” value is on record as “The cGMP activated current was measured as the difference between the current recorded in the presence”. For `CNC` [DMA, dimethylammonium], the dissociation constant (Kd) in assay [2] turned out to be 52 mM.
